Measurements from patent US4451467A, “4(3H)-Quinazolinone derivatives, process for production thereof, and pharmaceutical compositions comprising said compounds” (Ishikawa; Masayuki, priority 1981, dated 1984).

Assays:
Type in all cases: in vivo
[1] = test system: normotensive dogs anesthetized with pentobarbital sodium; assay: Hypotensive effect on anesthetized dogs (intravenous); conditions: i.v.; for hypotensive effect in anesthetized dogs (in words): same conditions as Table II, dose under 100 μg/kg; for Hypotensive Effect Δ(mmHg): anesthetized dogs, mean value
Procedure: Groups of three to four normotensive dogs anesthetized with pentobarbital sodium were used in the experiments. The test compounds were dissolved in a minimum amount of ethanol, and the solutions were administered intravenously in the vein cannulated with a polyethylene tube. The mean blood pressures in the carotid artery were recorded using a pressure transducer and a recorder. The hypotensive effect in Table II are a mean value obtained from at least three to four experiments.

[2] = test system: male spontaneously hypertensive rats (Wister Kyoto origin); assay: Hypotensive effect on conscious spontaneously hypertensive rats (oral); conditions: Rattus norvegicus, tail-cuff method, read-out: pD30 (dose which decreases systolic blood pressure by 30 mmHg)
Procedure: (b) Hypotensive effect on conscious spontaneously hypertensive rate
The test compounds were orally administered to groups of four to five of male spontaneously hypertensive rats (Wister Kyoto origin) weighing about 300 g and aged 15 to 20 weeks. The systolic blood pressure was measured by the tail-cuff method using a plethysmograph.

[3] = Test for acute toxicity (oral, rats); conditions: rat, in vivo, rats, 8 days
Text: (§1) A suspension of a test compound in 0.5% CMC aqueous solution containing Tween 80 was orally administered to rats, and during 8 days the number of dead rats was counted.

[4] = test system: rats; assay: Test for acute toxicity (oral, rats); conditions: for number of dead rats [drawing 15]: 8 days
Text: as §1

| SMILES | Hypotensive Effect Δ(mmHg) ([1]; dose 1.0 μg/kg) | Hypotensive Effect Δ(mmHg) ([1]; dose 3.0 μg/kg) | Hypotensive Effect Δ(mmHg) ([1]; dose 10 μg/kg) | also measured |
| --- | --- | --- | --- | --- |
| CCOC(=O)c1c(C)cc2nc(C)n(-c3ccccc3Cl)c(=O)c2c1C [3-(2-chlorophenyl)-6-ethoxycarbonyl-2,5,7-trimethyl-4(3H)-quinazolinone, reference compound] |  |  |  | hypotensive effect in anesthetized dogs (in words) [1]: did not exhibit a hypotensive effect |
| CCOC(=O)c1c(C)cc2c(c1C)c(=O)n(-c1ccccc1C(F)(F)F)c(=O)n2CCN(CC)CC [6-ethoxycarbonyl-3-[2-(trifluoromethyl)phenyl]-5,7-dimethyl-1-[2-(N,N-diethylamino)ethyl]-2,4(1H,3H)-quinazolinedione, reference compound] |  |  |  | hypotensive effect in anesthetized dogs (in words) [1]: did not exhibit a hypotensive effect |
| CCNC(=O)OCc1nc2cc(C)c(C(=O)OCC)c(C)c2c(=O)n1-c1ccccc1[N+](=O)[O-] [Compound 28] | 0 | 6 | 9 | Hypotensive Effect Δ(mmHg) ([1]; dose 30 μg/kg): 25 mmHg |
| CCOC(=O)c1c(C)cc2nc(COC(=O)NC(C)C)n(-c3ccccc3F)c(=O)c2c1C [Compound 18] | 5 | 10 | 28 |  |
| CCOC(=O)c1c(C)cc2nc(COC(=O)NC(C)C)n(-c3ccccc3C)c(=O)c2c1C [Compound 23] | 8 | 25 |  |  |
| CCCCNC(=O)OCc1nc2cc(C)c(C(=O)OCC)c(C)c2c(=O)n1-c1ccccc1Cl [Compound 12] | 10 | 25 |  |  |
| CCOC(=O)c1c(C)cc2nc(COC(=O)NC(C)C)n(-c3ccccc3C(F)(F)F)c(=O)c2c1C [Compound 27] | 0 | 0 | 8 | Hypotensive Effect Δ(mmHg) ([1]; dose 30 μg/kg): 18 mmHg; Hypotensive Effect Δ(mmHg) ([1]; dose 100 μg/kg): 25 mmHg |
| COc1ccc(Cc2nccc3cc(OC)c(OC)cc23)cc1OC [papaverine, reference compound] |  |  |  | hypotensive effect in anesthetized dogs (in words) [1]: did not exhibit a hypotensive effect |
| CCOC(=O)c1c(C)cc2nc(COC(=O)NC(C)C)n(-c3ccccc3Br)c(=O)c2c1C [Compound 19] | 20 | 35 |  |  |
| CCNC(=O)OCc1nc2cc(C)c(C(=O)OCC)c(C)c2c(=O)n1-c1ccccc1Cl [Compound 9] | 22 | 42 |  | ED (30 mmHg) [2]: 0.35 mg/kg |
| CCCNC(=O)OCc1nc2cc(C)c(C(=O)OCC)c(C)c2c(=O)n1-c1ccccc1Cl [Compound 10] | 10 | 25 |  |  |
| CCOC(=O)c1c(C)cc2nc(COC(=O)NC(C)C)n(-c3ccccc3Cl)c(=O)c2c1C [Compound 2, 3-(2-chlorophenyl)-6-ethoxycarbonyl-5,7-dimethyl-2-(N-isopropylcarbamoyloxymethyl)-4(3H)-quinazolinone] | 24 | 48 |  | ED (30 mmHg) [2]: 0.42 mg/kg |
| CCOC(=O)c1c(C)cc2c(c1C)c(=O)n(-c1ccccc1Cl)c(=O)n2CCN(CC)CC [3-(2-chlorophenyl)-6-ethoxycarbonyl-5,7-dimethyl-1-(2-(N,N-diethylamino)ethyl]-2,4(1H,3H)-quinazolinedione, reference compound] |  |  |  | hypotensive effect in anesthetized dogs (in words) [1]: did not exhibit a hypotensive effect |
| CCOC(=O)c1c(C)cc2nc(COC(=O)N(C)C)n(-c3ccccc3Cl)c(=O)c2c1C.Cl [Compound 3, 3-(2-chlorophenyl)-2-(N,N-dimethylcarbamoyloxymethyl)-6-ethoxy-carbonyl-5,7-dimethyl-4(3H)-quinazolinone hydrochloride] | 0 | 0 | 1 | Hypotensive Effect Δ(mmHg) ([1]; dose 30 μg/kg): 6 mmHg; Hypotensive Effect Δ(mmHg) ([1]; dose 100 μg/kg): 20 mmHg |
| CCOC(=O)c1c(C)cc2nc(COC(=O)NC)n(-c3ccccc3Cl)c(=O)c2c1C [Compound 1, 3-(2-chlorophenyl)-6-ethoxycarbonyl-5,7-dimethyl-2-(N-methylcarbamoyloxymethyl)-4(3H)-quinazolinone] | 3 | 6 | 22 | Hypotensive Effect Δ(mmHg) ([1]; dose 30 μg/kg): 43 mmHg; Hypotensive Effect Δ(mmHg) ([1]; dose 100 μg/kg): 51 mmHg; ED (30 mmHg) [2]: 2.8 mg/kg; LD50 at 192 h [3]: 2500 mg/kg; toxicity (in words) ([4]; acute, rats): very low; number of dead rats [drawing 15] ([4]; dose 1200 mg/Kg): 2/6; number of dead rats [drawing 15] ([4]; dose 1715 mg/Kg): 3/6; number of dead rats [drawing 15] ([4]; dose 2450 mg/Kg): 3/6; number of dead rats [drawing 15] ([4]; dose 3500 mg/Kg): 3/6; number of dead rats [drawing 15] ([4]; dose 5000 mg/Kg): 5/6 |
| CCOC(=O)c1c(C)cc2nc(C)n(-c3ccccc3C(F)(F)F)c(=O)c2c1C [6-ethoxycarbonyl-3-[2-(trifluoromethyl)phenyl]-2,5,7-trimethyl-4(3H)-quinazoline, reference compound] |  |  |  | hypotensive effect in anesthetized dogs (in words) [1]: did not exhibit a hypotensive effect |
| CCOC(=O)c1c(C)cc2nc(COC(=O)NC(C)(C)C)n(-c3ccccc3Cl)c(=O)c2c1C [Compound 14] | 8 | 10 | 25 |  |
